Read-outs that look alike come from different tables or passages of the source.
What was measured:
[1] = test system: IL6 release from the THP-1 acute leukemia cells; experiment: IL6 release from LPS-treated THP-1 cells; type: cell-based; conditions: Homo sapiens, lipopolysaccharide treatment, then Compound 1 for 16 hours
Method: Compound 1 was assessed for its ability to suppress the expression of NF-κB target genes in two experiments. In one experiment, THP-1 acute leukemia cell lines were exposed to lipopolysaccharide treatment and then Compound 1 for 16 hours. […] In the other experiment, the ability of Compound 1 to suppress both IL6 and ILIO expression in TMD8 ABC-DLBCL cells was investigated (data on file). TMD8 cells were incubated with DMSO or 1.6 μM Compound 1 for 6 or 24 hours. RNA was then extracted from the cells and quantified using qRT-PCR.

[2] = test system: CD34+ cells isolated from healthy donor bone marrow; experiment: Megakaryocyte differentiation, single agent, 14 days (FACS); type: cell-based; conditions: FIG. 2
Method: The effects of Compound 1 on megakaryocyte differentiation and proliferation were evaluated using CD34+ cells isolated from healthy donor bone marrow (data on file). The CD34+cells were grown in megakaryocyte differentiation serum-free stem cell differentiation base medium with a megakaryocyte-driving cytokine cocktail for 14 days with DMSO or Compound 1 at concentrations ranging from 3 nM to 500 nM. The cells were then stained for CD34 (progenitor marker), CD45 (leukocyte marker) and CD41a (mature megakaryocyte marker) and assessed by FACS for viability and marker expression. CD41a expression and cell size were used as markers of megakaryocyte differentiation. […] The shift from high to low CD41a expression began at approximately 50 nM, with pronounced effects observed at 200 to 500 nM, as shown in FIG. 2.

[3] = test system: CD34+ cells isolated from the bone marrow of two healthy donors; experiment: Megakaryocyte differentiation and proliferation, alone and with ruxolitinib, 10 days (FACS); type: cell-based; conditions: 240 h, 10 days
Description: The cells were then harvested for FACS analysis with live/dead stain and gating with CD34 (progenitor marker) and CD41a and CD42b (mature megakaryocyte markers).

[4] = test system: patients with refractory or intolerant myelofibrosis already being administered Rux; experiment: Phase 2 study, Arm 2 (Compound 1 add-on to ruxolitinib); type: in vivo, human
Method: A Phase 2 study of Compound 1 in subjects with myelofibrosis (MF) was conducted. Three treatment arms were studied: Arm 2=combination add-on treatment of Compound 1 in patients (pts) who are already being administered Rux. In this arm patients were further stratified based on transfusion dependence status [transfusion dependent (TD), defined as an average of >2 units per month over 12 wks, or non-TD cohorts]. The starting dose of Compound 1 was 125 mg daily on days 1-14 of a 21-day cycle in both arms. Primary endpoint: spleen volume response (SVR) for non-TD cohorts or TD to transfusion independence (TI, no transfusion for consecutive 12 wks) conversion for TD cohorts; secondary endpoints: change in total symptom score (TSS) per […]4.0, patient global impression of change (PGIC), safety and PK; additional endpoints: changes in proinflammatory Ck levels, BM morphology and mutant allele burden. The starting dose of Compound 1 was 125 mg given orally, once daily for 2 weeks on/1 week off in a 21-day dosing cycle. Two separate time points for data analysis occurred for at least Arms 1 and 2 and are discussed below: one at approximately 12 weeks of treatment (first assessment of spleen volume by MRI or CT and every 12 weeks thereafter) and another at approximately 24 weeks of treatment (first assessment of bone marrow biopsy and every 24 weeks thereafter). Patients were added to the study following the first time point. Patients were added to the study following the first data cut and treatment was continued for approximately 25.9 weeks (median, range: 0.4, 116.6).

[5] = Time Point 1, Compound 1 with ruxolitinib

With Cc1noc2c1-c1ccccc1C(c1ccc(Cl)cc1)=N[C@H]2CC(N)=O [Compound 1, 2-((4S)-6-(4-chlorophenyl)-1-methyl-4H-benzo[c]isoxazolo[4,5-e]azepin-4-yl)acetamide] the IC50 [1] was 69 nM, the “concentration at which shift from high to low CD41a expression began” value [2] was “approximately 50 nM” and the EC50 ([3]; Donor 1, percent of cells double positive for CD41a and CD42b, read-out: Megakaryocyte differentiation EC50) was 60 nM. The EC50 ([3]; Donor 1, read-out: Megakaryocyte live count EC50) was 26 nM, the EC50 ([3]; Donor 1, read-out: Total live count EC50) was 43 nM and the EC50 ([3]; Donor 1, read-out: Viability EC50) was 300 nM. For the same compound, the EC50 ([3]; Donor 2, percent of cells double positive for CD41a and CD42b, read-out: Megakaryocyte differentiation EC50) was 131 nM, the EC50 ([3]; Donor 2, read-out: Megakaryocyte live count EC50) was 29 nM and the EC50 ([3]; Donor 2, read-out: Total live count EC50) was 32 nM. For the same compound, the EC50 ([3]; Donor 2, read-out: Viability EC50) was over 500 nM, the EC50 ([3]; Mean of two donors, read-out: Megakaryocyte differentiation EC50) was 96 nM and the EC50 ([3]; Mean of two donors, read-out: Megakaryocyte live count EC50) was 28 nM. It also gave an EC50 ([3]; Mean of two donors, read-out: Total live count EC50 (overall cell proliferation)) of 38 nM, an EC50 ([3]; Mean of two donors, read-out: Viability EC50) of 400 nM and an EC50 ([3]; in the presence of 250 nM ruxolitinib, extrapolated, below the lowest dose tested, read-out: overall cell proliferation mean EC50 in the presence of ruxolitinib) of 17 nM. For the same compound, the “TD patients converted to TI” value [4, 5] was 4 patients, the “duration of TI in 2 of the converted patients” value [4, 5] was over 36 wks and the “patients with increase in hemoglobin by 1.5 mg/dL post-baseline” value ([4]; Time Point 1, Compound 1 with ruxolitinib, 4 of 25) was 16%. For the same compound, the “average spleen volume reduction” value ([4]; Time Point 2, 24 weeks, non-transfusion dependent at start, FIG. 12A) was “about −10.9%”, the “average spleen volume reduction” value ([4]; Time Point 2, 24 weeks, transfusion dependent at start) was “about −24.9%” and the “patients converted from transfusion dependent to transfusion independent” value ([4]; Time Point 2, 24 weeks, transfusion dependent at start, FIG. 10A) was “about 35%”. For the same compound, the “average time of conversion from TD to TI” value ([4]; Time Point 2, Arm 2) was “about 14 weeks”, the “average transfusion free time post-conversion” value ([4]; Time Point 2, Arm 2) was “about 14 weeks” and the “maximum transfusion free time post-conversion” value ([4]; Time Point 2, Arm 2) was 85 weeks. For the same compound, the “patients with greater than or equal to a 50% reduction in transfusion intensity” value ([4]; Time Point 2, Arm 2) was “About 41%”, the “patients with improvement in bone marrow fibrosis” value ([4]; Time Point 2, non-transfusion dependent at start) was “about 25%” and the “patients with improvement in disease symptoms per TSS” value ([4]; Time Point 2, non-transfusion dependent at start, FIG. 12B) was “About 38%”. For the same compound, the “patients with improved PGIC” value ([4]; Time Point 2, non-transfusion dependent at start, FIG. 12C) was “about 69%”, the “patients with improvement in disease symptoms per TSS” value ([4]; Time Point 2, transfusion dependent at start, FIG. 10B) was “About 76.5%” and the “patients with improved PGIC” value ([4]; Time Point 2, transfusion dependent at start, FIG. 10C) was “about 75%”.
